The text below walks through data of ChEMBL document CHEMBL3259655, “Anthranilic acid derivatives as novel ligands for farnesoid X receptor (FXR)” (Bioorg Med Chem, 2014).

≈ marks a conversion by molar mass, not a printed value. Calls of active or inactive are those of the source. The calls are words filed in the database; no cut-off is given here.

For orientation: EC50 means the midpoint of the concentration-response curve. What is called solubility is the concentration that dissolves in the medium under given conditions. A higher solubility goes with a readily soluble substance.

One data set concerns the target T1, Bile acid receptor (Homo sapiens, UniProt Q96RI1).
T1 sequence (Q96RI1 whole entry): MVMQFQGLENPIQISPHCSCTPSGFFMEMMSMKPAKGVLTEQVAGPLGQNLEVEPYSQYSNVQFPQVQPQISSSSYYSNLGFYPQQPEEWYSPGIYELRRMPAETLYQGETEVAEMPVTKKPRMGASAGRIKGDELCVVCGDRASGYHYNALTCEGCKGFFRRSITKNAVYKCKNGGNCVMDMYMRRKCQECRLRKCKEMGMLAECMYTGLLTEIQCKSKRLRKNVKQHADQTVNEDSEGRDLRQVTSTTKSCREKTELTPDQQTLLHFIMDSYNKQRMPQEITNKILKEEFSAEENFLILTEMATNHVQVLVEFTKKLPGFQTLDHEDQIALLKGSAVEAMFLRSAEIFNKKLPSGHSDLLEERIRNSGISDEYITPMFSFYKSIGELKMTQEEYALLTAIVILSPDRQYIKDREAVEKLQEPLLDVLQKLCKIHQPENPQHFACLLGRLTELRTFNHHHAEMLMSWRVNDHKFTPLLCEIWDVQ
The data set is described as follows: Agonist activity at human FXR expressed in human HeLa cells assessed as transactivation after 24 hrs by luciferase reporter gene assay. The data set is classed as cell-based.

The target of data set [1] is T2, Bile acid receptor (Homo sapiens) (UniProt Q96RI1).
T2 sequence (whole entry): T1 sequence (Q96RI1 whole entry)
Kind of data set: Agonist activity at human FXR expressed in human HeLa cells assessed as transactivation after 24 hrs by luciferase reporter gene assay relative to GW4064. The class given is cell-based. On the technique in general: In a reporter assay the amount or activity of a reporter protein is the signal.

The target in data set [2] is T2, Bile acid receptor (Homo sapiens). The data set is described as follows: Agonist activity at human FXR expressed in human HeLa cells assessed as transactivation at 30 uM after 24 hrs by luciferase reporter gene assay relative to GW4064. The class given is cell-based.
Data set [3] has as its system HeLa. The data set is described as follows: Cytotoxicity against human HeLa cells at >10 uM after 48 hrs by WST-1 assay. The class given is cell-based. For orientation: Tetrazolium dyes change colour on reduction, which living cells bring about.
Data set [4] has as its target T2, Bile acid receptor (Homo sapiens). The data set is described as follows: Agonist activity at human FXR expressed in human HeLa cells assessed as transactivation at 3 uM after 24 hrs by luciferase reporter gene assay relative to GW4064. The class given is cell-based.
A short description of data set [5]: Metabolic stability in Sprague-Dawley rat liver microsomes assessed as compound remaining at 10 uM after 60 mins by HPLC analysis. The data set is classed as ADME. As to conditions: read-out: Stability.
Data set [6] has as its system HeLa. Kind of data set: Cytotoxicity against human HeLa cells at 60 uM after 48 hrs by WST-1 assay. The class given is cell-based.
In data set [7] the test system is HepG2. Kind of data set: Cytotoxicity against human HepG2 cells at 10 uM after 48 hrs by WST-1 assay relative to control. The following applies: hepg2, 48 h. The class given is cell-based.
For data set [8], the system named is HepG2. The data set is described as follows: Cytotoxicity against human HepG2 cells at 100 uM after 48 hrs by WST-1 assay relative to control. The data set is classed as cell-based. The following applies: hepg2, 48 h.
Data set [9] can be described thus: Aqueous solubility of the compound. The data set is classed as physicochemical. As to conditions: water.
Data set [10] can be described thus: Metabolic stability in Sprague-Dawley rat liver microsomes assessed as compound remaining at 10 uM after 30 mins by HPLC analysis. The data set is classed as ADME. As to conditions: read-out: Stability. Background: Liver microsomes are a subcellular fraction often used to study metabolism.
Data set [11] has as its system HepG2. Kind of data set: Cytotoxicity against human HepG2 cells at 30 uM after 48 hrs by WST-1 assay relative to control. The class given is cell-based. As to conditions: hepg2, 48 h.
In data set [12] the test system is HepG2. The data set is described as follows: Cytotoxicity against human HepG2 cells at 60 uM after 48 hrs by WST-1 assay relative to control. The class given is cell-based. The following applies: hepg2, 48 h.
Data set [13] is described as follows: Metabolic stability in Sprague-Dawley rat liver microsomes assessed as compound remaining at 10 uM after 15 mins by HPLC analysis. The data set is classed as ADME. As to conditions: read-out: Stability.

For the molecule `O=C(O)CCCCCNC(=O)c1ccccc1NC(=O)c1ccc2ccccc2c1`, the EC50 at Bile acid receptor stood at 4.4 µM. The max activation in data set [1] turned out to be 10.4%.
In the case of `O=C(O)c1ccc(CNC(=O)c2ccccc2NC(=O)c2ccc3ccccc3c2)cc1`, the EC50 on Bile acid receptor came to 1.3 µM. Also, in data set [1], the max activation amounted to 10%.
Take `CCc1ccc(C(=O)Nc2ccccc2C(=O)NCCCC(=O)O)cc1`: the half-maximal effective concentration (EC50) on Bile acid receptor amounted to 5.8 µM. Further, the max activation in data set [1] was determined as 28%.
In the case of `O=C(O)CCCNC(=O)c1ccccc1NC(=O)Cc1ccc2ccccc2c1`, in [2], the max activation entry was “inactive”.
Take `O=C(O)CCCNC(=O)c1ccccc1NS(=O)(=O)c1ccc2ccccc2c1`: the max activation entry in [2] was “inactive”.
Turning to `CC(C)(C)c1ccc(C(=O)Nc2ccccc2C(=O)NCCCC(=O)O)cc1`, the EC50 on Bile acid receptor amounted to 2.5 µM. In [1], the max activation came out at 19%.
On to `O=C(O)CCCNCc1ccccc1NC(=O)c1ccc2ccccc2c1`, for which, in data set [2], the max activation entry was “inactive”.
For the molecule `COc1ccc(C(=O)Nc2ccccc2C(=O)NCCCC(=O)O)cc1`, the Activity entry in the data set with HeLa [3] is on record as “Toxic”. Moreover, the max activation entry in data set [4] is “inactive”.
The corresponding values for `O=C(O)CCCNC(=O)c1ccccc1NC(=O)C(c1ccccc1)c1ccccc1` are “Toxic” and “inactive”.
Take `O=C(O)CCCCNC(=O)c1ccccc1NC(=O)c1ccc2ccccc2c1`: the EC50 at Bile acid receptor was 8.3 µM. Moreover, the max activation in data set [1] amounted to 11.4%.
Turning to `O=C(O)CCCNC(=O)c1ccccc1NC(=O)CCc1ccccc1`, the max activation result in data set [2] was “inactive”.
Take `O=C(O)CCCNC(=O)c1ccccc1NC(=O)CC(c1ccccc1)c1ccccc1`: the max activation entry in [2] is “inactive”.
`O=C(O)CCCNC(=O)c1ccccc1NC(=O)c1ccc(-c2ccccc2)cc1`: in the data set on HeLa [3], the Activity result was “Toxic”. For the same molecule, the max activation result in data set [4] was “inactive”.
With `O=C(O)CCCNC(=O)c1ccccc1NC(=O)c1cccc2ccccc12`, the max activation result in [2] was “inactive”.
With `Cc1ccc(C(=O)Nc2ccccc2C(=O)NCCCC(=O)O)cc1`, in [2], the max activation was 11%.
As for `O=C(O)CCCNC(=O)c1ccccc1NC(=O)/C=C/c1ccccc1`, the 50% effective concentration (EC50) at Bile acid receptor was determined as 0.72 µM. Moreover, the max activation in data set [1] was 12.4%.
For the molecule `O=C(O)c1cccc(NC(=O)c2ccccc2NC(=O)c2ccc3ccccc3c2)c1`, in [5], the remaining at 1 h, 10 µM worked out at 61%. On Bile acid receptor, the concentration giving a half-maximal response (EC50) was found to be 1.5 µM. Also, the Activity entry with HeLa [6] is reported as “Non-toxic”; with HepG2 [7], 93%; in the data set with HepG2 [8], 46%; with HepG2 [11] it was 65%; with HepG2 [12], 50%. Moreover, in [1], the max activation was determined as 37%. The molecule also returned a solubility in data set [9] of 0.3 µg/mL (≈ 0.731 µM). Moreover, in data set [10], the remaining at 0.5 h, 10 µM was 76%. The remaining at 0.25 h, 10 µM in data set [13] worked out at 86%.
For the molecule `O=C(O)CCCNC(=O)c1ccccc1NC(=O)c1ccccc1-c1ccccc1`, in [2], the max activation result was “inactive”.
As to `O=C(O)Cc1ccc(NC(=O)c2ccccc2NC(=O)c2ccc3ccccc3c2)cc1`, the EC50 on Bile acid receptor was determined as 3.1 µM. Moreover, the max activation in data set [1] turned out to be 9.8%.
Take `O=C(O)c1ccc(NC(=O)c2ccccc2NC(=O)c2ccc3ccccc3c2)cc1`: the EC50 on Bile acid receptor came out at 1 µM. Further, in data set [1], the max activation turned out to be 23%.
For the molecule `CN(CCCC(=O)O)C(=O)c1ccccc1NC(=O)c1ccc2ccccc2c1`, the max activation result in data set [2] is “inactive”.
Consider `O=C(O)CCCNC(=O)c1ccccc1NC(=O)c1cc([N+](=O)[O-])cc([N+](=O)[O-])c1`, for which the max activation result in [2] was “inactive”.
Regarding `COC(=O)CCCNC(=O)c1ccccc1NC(=O)c1ccc2ccccc2c1`, the 50% effective concentration (EC50) on Bile acid receptor was 7.1 µM. The max activation in [1] was found to be 19%.
For the molecule `O=C(O)CCCNC(=O)c1ccccc1NC(=O)c1cccs1`, the Activity entry in the data set with HeLa [3] is reported as “Toxic”. Besides, in data set [4], the max activation result was “inactive”.
For the molecule `O=C(O)CCCNC(=O)c1ccccc1NCc1ccc2ccccc2c1`, the max activation entry in [2] is “inactive”.
As to `CN(C(=O)c1ccc2ccccc2c1)c1ccccc1C(=O)NCCCC(=O)O`, the max activation result in data set [2] was “inactive”.
For the molecule `O=C(O)CCCNC(=O)c1ccccc1NC(=O)c1cccc(-c2ccccc2)c1`, the max activation result in [2] is “inactive”.
In the case of `O=C(O)CCCNC(=O)c1ccccc1NC(=O)c1ccncc1`, the max activation entry in data set [2] is “inactive”.
